System: iPSC-CMs, iPSC-ECs and HUVECs phenotypes
Test: ToxPi 2.0 integration of POD values and physicochemical descriptors
Set-up: species or system human
Conditions: ToxPi-scaled (0-1) score; for huvec.cyto.24hr / huvec.mito.24hr / huvec.mitoint.24hr / huvec.nma.24hr / huvec.tc.24hr / huvec.mtl.18hr / huvec.tlps.18hr / huvec.tta.18hr / huvec.ttl.18hr: HUVECs; for huvec.mtl.18hr / huvec.tlps.18hr / huvec.tta.18hr / huvec.ttl.18hr / endo.mtl.18hr / endo.tlps.18hr / endo.tta.18hr / endo.ttl.18hr: tube formation; for cm.amp.avg.90min / cm.amp.cv.90min / cm.bpm.90min / cm.cam.90min / cm.decay.rise.90min / cm.mii.90min / cm.mito.90min / cm.spacing.cv.90min / cm.tc.90min / cm.amp.avg.24hrs / cm.amp.cv.24hrs / cm.bpm.24hrs / cm.cam.24hrs / cm.decay.rise.24hrs / cm.mii.24hrs / cm.mito.24hrs / cm.spacing.cv.24hrs / cm.tc.24hrs: iPSC cardiomyocytes; for endo.cyto.24hr / endo.mito.24hr / endo.mitoint.24hr / endo.nma.24hr / endo.tc.24hr / endo.mtl.18hr / endo.tlps.18hr / endo.tta.18hr / endo.ttl.18hr: iPSC endothelial cells
From the text: Phenotypic responses were quantitatively assessed using concentration–response modeling as detailed elsewhere ([Sirenko et al. 2017]). Briefly, phenotypic readouts were normalized to vehicle controls and fit to a four-parameter logistic model in R studio software (version 3.1.1; R Development Core Team). Following EPA guidance on dose–response modeling, a cutoff of one standard deviation across means of vehicle control (i.e., 0.5% vol/vol DMSO in cell culture media) wells was applied to determine the point-of-departure (POD) values ([U.S. EPA 2012]). In the absence of a concentration–response, the highest tested concentration (i.e., 100μM ) was assigned as “no observable adverse effect level.” The concentration–response assessment R script, as well as templates for vehicle and concentration–response data, are available as a supplement to Sirenko et al. ([2017]). The ability of physicochemical properties to predict differences in PODs were evaluated by multiregression and mixed-effects modeling using R.
POD values were then integrated using ToxPi 2.0 ([Marvel et al. 2018]) software. In ToxPi, each slice is representative of cell type– and time-point–specific phenotypes. The area of each slice is proportional to the relative value (e.g., bioactivity or physicochemical descriptor value) of the chemical within the data set. ToxPi scores were used to rank PCBs and their metabolites according to their overall bioactivity and to determine variability in total observable biological responses and chemical characteristics for each major metabolite class and chlorination status (mono-, hexa-chlorinated). Additional visualizations such as dumbbell and principal components analysis plots were generated in R Studio (version 1.1.456; R version 3.5.1; R Development Core Team) using the ggplot2 package.

Row | Structure (SMILES) | huvec.cyto.24hr | huvec.mito.24hr | huvec.mitoint.24hr | huvec.nma.24hr | huvec.tc.24hr | huvec.mtl.18hr | huvec.tlps.18hr | huvec.tta.18hr | huvec.ttl.18hr | cm.amp.avg.90min | cm.amp.cv.90min | cm.bpm.90min | cm.cam.90min | cm.decay.rise.90min | cm.mii.90min | cm.mito.90min | cm.spacing.cv.90min | cm.tc.90min | cm.amp.avg.24hrs | cm.amp.cv.24hrs | other results
1 | Oc1cc(Cl)c(-c2cc(Cl)ccc2Cl)cc1Cl [4-OH-PCB 52] | 0.4769 | 0.5351 | 0.7457 | 0 | 0.4769 | 0.5555 | 0.604 | 0.1308 | 0.07185 | 0.2901 | 0.2696 | 1 | 1 | 0.2017 | 0.2919 | 1 | 0.1401 | 1 | 0.1949 | 0.09883 | cm.bpm.24hrs: 0.4544; cm.cam.24hrs: 0.15; cm.decay.rise.24hrs: 0.2583; cm.mii.24hrs: 0.1136; cm.mito.24hrs: 0.2161; cm.spacing.cv.24hrs: 0.3488; cm.tc.24hrs: 0.2027; endo.cyto.24hr: 0.3535; endo.mito.24hr: 0.3535; endo.mitoint.24hr: 0.1136; endo.nma.24hr: 0.0802; endo.tc.24hr: 0.3161; endo.mtl.18hr: 0.2459; endo.tlps.18hr: 0.3982; endo.tta.18hr: 0.1729; endo.ttl.18hr: 0.1737
2 | Clc1ccc(Cl)c(-c2cc(Cl)ccc2Cl)c1 [PCB 52, 2,2′,5,5′-tetrachlorobiphenyl] | 0.5178 | 0.613 | 0.5572 | 0.3829 | 0.5178 | 0 | 0 | 0 | 0 | 0.5597 | 0.1687 | 0.3203 | 0.422 | 0.1841 | 0.8432 | 0.3815 | 0.1566 | 0.3874 | 0.3455 | 0.4979 | cm.bpm.24hrs: 0.3481; cm.cam.24hrs: 0.3478; cm.decay.rise.24hrs: 0.2921; cm.mii.24hrs: 0.2822; cm.mito.24hrs: 0.5634; cm.spacing.cv.24hrs: 0.2305; cm.tc.24hrs: 0.578; endo.cyto.24hr: 0; endo.mito.24hr: 0; endo.mitoint.24hr: 0; endo.nma.24hr: 0; endo.tc.24hr: 0; endo.mtl.18hr: 0.02365; endo.tlps.18hr: 0; endo.tta.18hr: 0; endo.ttl.18hr: 0
3 | Clc1ccc(-c2ccccc2)cc1 [PCB 3, 4-chlorobiphenyl] | 0 | 0 | 0 | 0 | 0 | 0.3075 | 0 | 0.9931 | 0.7484 | 0.3083 | 0.6784 | 0.3832 | 0.5745 | 0 | 1 | 0.6328 | 1 | 0.6608 | 0.05114 | 0.2083 | cm.bpm.24hrs: 0.1867; cm.cam.24hrs: 0.3496; cm.decay.rise.24hrs: 0.3179; cm.mii.24hrs: 0.587; cm.mito.24hrs: 0.5833; cm.spacing.cv.24hrs: 0.1653; cm.tc.24hrs: 0.6127; endo.cyto.24hr: 0; endo.mito.24hr: 0; endo.mitoint.24hr: 0; endo.nma.24hr: 0; endo.tc.24hr: 0; endo.mtl.18hr: 0; endo.tlps.18hr: 0; endo.tta.18hr: 0; endo.ttl.18hr: 0
4 | Clc1ccc(Cl)c(-c2c(Cl)ccc(Cl)c2Cl)c1Cl [(+)-PCB 136, 2,2′,3,3′,6,6′-hexachlorobiphenyl] | 0.7118 | 0.6728 | 1 | 0.5111 | 0.7118 | 0.4492 | 0 | 0 | 0 | 0.6409 | 0.2396 | 0.7987 | 0.4781 | 0.1898 | 0.5827 | 0.4679 | 0.07704 | 0.4097 | 0.5612 | 0.5448 | cm.bpm.24hrs: 0.7213; cm.cam.24hrs: 0.5816; cm.decay.rise.24hrs: 0.9212; cm.mii.24hrs: 0.1793; cm.mito.24hrs: 0.8542; cm.spacing.cv.24hrs: 0.7501; cm.tc.24hrs: 1; endo.cyto.24hr: 0.1692; endo.mito.24hr: 0.1692; endo.mitoint.24hr: 0.294; endo.nma.24hr: 0; endo.tc.24hr: 0.1732; endo.mtl.18hr: 0.04754; endo.tlps.18hr: 0.448; endo.tta.18hr: 0.8586; endo.ttl.18hr: 0.8499
5 | Clc1cccc(-c2cccc(Cl)c2)c1 [PCB 11, 3,3′-Dichlorobiphenyl] | 0.2265 | 0.2773 | 0.5099 | 0.3029 | 0.2265 | 0 | 0.1652 | 0 | 0 | 0.6423 | 0.3673 | 0.1538 | 0.6939 | 0.6828 | 0.779 | 0.7948 | 0.06972 | 0.7336 | 0.07152 | 0.5878 | cm.bpm.24hrs: 0.1537; cm.cam.24hrs: 0.1401; cm.decay.rise.24hrs: 0.254; cm.mii.24hrs: 0.6195; cm.mito.24hrs: 0.2384; cm.spacing.cv.24hrs: 0.3725; cm.tc.24hrs: 0.241; endo.cyto.24hr: 0; endo.mito.24hr: 0; endo.mitoint.24hr: 0; endo.nma.24hr: 0; endo.tc.24hr: 0; endo.mtl.18hr: 0; endo.tlps.18hr: 0; endo.tta.18hr: 0; endo.ttl.18hr: 0
6 | Clc1ccc(Cl)c(-c2c(Cl)ccc(Cl)c2Cl)c1Cl [(-)-PCB 136, 2,2′,3,3′,6,6′-hexachlorobiphenyl] | 0.6125 | 0.5549 | 0.9537 | 0.4969 | 0.6125 | 0.3427 | 0.303 | 0.01368 | 0 | 0.7629 | 0.2327 | 0.26 | 0.908 | 0.5565 | 0.3116 | 0.9077 | 0.07999 | 0.9177 | 0.7236 | 1 | cm.bpm.24hrs: 0.3802; cm.cam.24hrs: 0.2824; cm.decay.rise.24hrs: 0.8976; cm.mii.24hrs: 0.3373; cm.mito.24hrs: 0.4521; cm.spacing.cv.24hrs: 0.2002; cm.tc.24hrs: 0.472; endo.cyto.24hr: 0.3713; endo.mito.24hr: 0.3713; endo.mitoint.24hr: 0.4668; endo.nma.24hr: 0; endo.tc.24hr: 0.3821; endo.mtl.18hr: 0.07274; endo.tlps.18hr: 0.09334; endo.tta.18hr: 0.6122; endo.ttl.18hr: 0.627

From paper PMC7377239, “Cardiovascular Effects of Polychlorinated Biphenyls and Their Major Metabolites” (Environmental Health Perspectives, 2020)
